Test results taken from patent publication US8975277B2, “2,3-dihydrofuro[2,3-c]pyridin-2-ylpiperidine derivatives” (Boehringer Ingelheim International GmbH, priority 2012, dated 2015).

Target: T1, human GPR119 (Homo sapiens, UniProt Q8TDV5)
T1 construct: expression vector for human GPR119 cDNA (Acc. No. NP_848566); expressed in transfected cells
T1 sequence (Q8TDV5 1-335): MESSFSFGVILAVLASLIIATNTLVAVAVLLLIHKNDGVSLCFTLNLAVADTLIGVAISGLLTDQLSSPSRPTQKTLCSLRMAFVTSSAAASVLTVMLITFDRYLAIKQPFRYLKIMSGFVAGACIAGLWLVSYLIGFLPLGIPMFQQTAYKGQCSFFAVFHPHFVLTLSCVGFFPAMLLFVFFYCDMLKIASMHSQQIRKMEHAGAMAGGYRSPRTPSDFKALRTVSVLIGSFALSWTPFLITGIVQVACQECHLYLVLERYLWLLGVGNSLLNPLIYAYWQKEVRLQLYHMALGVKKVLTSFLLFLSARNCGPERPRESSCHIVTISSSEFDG
Assay: AlphaScreen cAMP assay, activation of GPR119 in MIN6 cells stably transfected with human GPR119
Assay type: cell-based
Settings: Min-6/hGPR119 cells, intracellular cAMP, 45 minutes incubation at room temperature
Protocol: The compounds of the invention modulate the activity of the G-protein-coupled receptor GPR119. The effect of the compounds on the activation of GPR119 and on the stimulation of intracellular cAMP concentration is determined using the AlphaScreen cAMP Assay Kit (Cat.No.#6760625R) made by Perkin Elmer.
MIN6 cells [Miyazaki J et al., Endocrinology. 1990 July; 127(1):126-32] are stably transfected with an expression vector for human GPR119 cDNA (Acc. No. NP_848566). Min-6/hGPR119 cells are cultured in DMEM, 10% FBS, 50 μM β-mercaptoethanol, 0.3 mg/mL Geniticin, 2 mM GlutaMAX at 37° C., 5% CO2. For the assay, the cells are seeded in Optiplates (white, 384-well, 160W-barcoded, TC, sterile with lid, Cat.No.#6007688 (Perkin Elmer); 10000 cells/well; 50 μL). The plates covered with lids are then incubated for 24 hours at 37° C., 5% CO2. After the medium is aspirated from the wells completely, 10 μl of the test compound are added, the compounds are diluted using stimulating buffer (140 mM NaCl, 3.6 mM KCl, 0.5 mM NaH2PO4, 0.5 mM MgSO4, 1.5 mM CaCl2, 10 mM Hepes, 5 mM NaHCO3; pH 7.4. 0.5 mM IBMX and 0.1% BSA, the final DMSO concentration is 1%). After 45 minutes incubation at room temperature (approx. 20° C.), the cAMP concentrations are determined using the AlphaScreen cAMP Assay Kit (Cat.No.#6760625R from PerkinElmer).

SMILES | EC50 [nM]
C[C@@H](OC(=O)N1CCC([C@H]2Cc3cc(-c4ccc(S(C)(=O)=O)cc4)ncc3O2)CC1)C(F)(F)F [Example 2, (R)-4-[(R)-5-(4-Methanesulfonyl-phenyl)-2,3-dihydro-furo[2,3-c]pyridin-2-yl]-piperidine-1-carboxylic acid 2,2,2-trifluoro-1-methyl-ethyl ester] | 6
C[C@H](OC(=O)N1CCC([C@@]2(C)Cc3cc(-c4ccc(S(C)(=O)=O)cc4)ncc3O2)CC1)C(F)(F)F [Example 9, (S)-4-[(R)-5-(4-Methanesulfonyl-phenyl)-2-methyl-2,3-dihydro-furo[2,3-c]pyridin-2-yl]-piperidine-1-carboxylic acid 2,2,2-trifluoro-1-methyl-ethyl ester] | 1
C[C@H](OC(=O)N1CCC([C@@]2(C)Cc3cc(C4=CCN(S(C)(=O)=O)CC4)ncc3O2)CC1)C(F)(F)F [Example 7, (S)-4-[(R)-5-(1-Methanesulfonyl-1,2,3,6-tetrahydro-pyridin-4-yl)-2-methyl-2,3-dihydro-furo[2,3-c]pyridin-2-yl]-piperidine-1-carboxylic acid 2,2,2-trifluoro-1-methyl-ethyl ester] | 3
C[C@@H](OC(=O)N1CCC([C@@]2(C)Cc3cc(-c4ccc(S(C)(=O)=O)cc4)ncc3O2)CC1)C(F)(F)F [Example 8, (R)-4-[(R)-5-(4-Methanesulfonyl-phenyl)-2-methyl-2,3-dihydro-furo[2,3-c]pyridin-2-yl]-piperidine-1-carboxylic acid 2,2,2-trifluoro-1-methyl-ethyl ester] | 4
C[C@@H](OC(=O)N1CCC([C@@]2(C)Cc3cc(C4=CCN(S(C)(=O)=O)CC4)ncc3O2)CC1)C(F)(F)F [Example 6, (R)-4-[(R)-5-(1-Methanesulfonyl-1,2,3,6-tetrahydro-pyridin-4-yl)-2-methyl-2,3-dihydro-furo[2,3-c]pyridin-2-yl]-piperidine-1-carboxylic acid 2,2,2-trifluoro-1-methyl-ethyl ester] | 7
C[C@@H](OC(=O)N1CCC([C@H]2Cc3cc(C4=CCN(S(C)(=O)=O)CC4)ncc3O2)CC1)C(F)(F)F [Example 3, (R)-4-[(R)-5-(1-Methanesulfonyl-1,2,3,6-tetrahydro-pyridin-4-yl)-2,3-dihydro-furo[2,3-c]pyridin-2-yl]-piperidine-1-carboxylic acid 2,2,2-trifluoro-1-methyl-ethyl ester] | 6
C[C@H](OC(=O)N1CCC([C@H]2Cc3cc(-c4ccc(S(C)(=O)=O)cc4)ncc3O2)CC1)C(F)(F)F [Example 1, (S)-4-[(R)-5-(4-Methanesulfonyl-phenyl)-2,3-dihydro-furo[2,3-c]pyridin-2-yl]-piperidine-1-carboxylic acid 2,2,2-trifluoro-1-methyl-ethyl ester] | 5
C[C@H](OC(=O)N1CCC([C@]2(C)Cc3cc(C4=CCN(S(C)(=O)=O)CC4)ncc3O2)CC1)C(F)(F)F [Example 5, (S)-4-[(S)-5-(1-Methanesulfonyl-1,2,3,6-tetrahydro-pyridin-4-yl)-2-methyl-2,3-dihydro-furo[2,3-c]pyridin-2-yl]-piperidine-1-carboxylic acid 2,2,2-trifluoro-1-methyl-ethyl ester] | 109
C[C@H](OC(=O)N1CCC([C@H]2Cc3cc(C4=CCN(S(C)(=O)=O)CC4)ncc3O2)CC1)C(F)(F)F [Example 4, (S)-4-[(R)-5-(1-Methanesulfonyl-1,2,3,6-tetrahydro-pyridin-4-yl)-2,3-dihydro-furo[2,3-c]pyridin-2-yl]-piperidine-1-carboxylic acid 2,2,2-trifluoro-1-methyl-ethyl ester] | 5
